Drawing on ChEMBL document CHEMBL5727723, “(S)-5-ethynyl-anabasine, derivatives thereof, and related compositions and methods of making and using” (2020), this text covers EC50 for 4 compounds.

pEC50: −log10 of the molar value.

As a reminder, the pEC50 is the EC50 on a negative log10 scale, so that one unit is a factor of ten.

A short description of this assay: functional assay: Nematode eggs are isolated from fresh feces by centrifugation and flotation. The eggs are washed and inspected to confirm embryonation has not started. Each sample is tested at six concentrations of a test compound (e.g., 0.02, 0.05, 0.1, 0.25, 0.5 and 1.0 μg/ml) and a negative control (no compound). After incubation for 48 h, the assay is ended, and all eggs and larvae present in each well are counted. The Hill equation with a variable slope is used to fit the dose-response relations using GraphPad Prism. The EC50-values and 95% confidence intervals are calculated.

With `CN1CCCCC1c1cccnc1` (centres undefined), the negative-log EC50 (pEC50) was more than 4.00. For the compound `CN1CCC[C@H]1c1ccc[n+](C)c1`, the pEC50 is more than 4.00. In the case of `CN1CCCC1c1ccc(N)nc1` (centres undefined), the pEC50 was 4.91. As for `CN1C(=O)CC[C@H]1c1cccnc1` [COTININE], the figure is more than 4.00.
